Legend:
[1] = test system: mdx mice; test: Serum creatine kinase (CK) evaluation, Example 2; format: in vivo; conditions: genistein 2 mg/kg/ip daily for 5 weeks vs vehicle
Experimental: (§1) Mdx animals were purchased from Charles River Italy (Calco, Milan, Italy). Animals were 4 weeks old on arrival and were acclimatized for 5 days before the study. At the beginning of the experiment the mice, which were at that point 5 weeks old, weighted about 20-22 grams. The mice were treated daily for 5 weeks with either the phytoestrogen genistein (Sigma, Mo., USA) at a dose of 2 mg/kg/ip or its vehicle (1:3 DMSO: 0.9% NaCl solution).
Blood samples were centrifuged at 6000 g and the serum was stored at −80° C. until the day of analysis. Serum CK was evaluated at 37° C. using a commercially available kit (Randox Laboratories LTD, Antrim, UK). The results are expressed as U/L.

[2] = test system: mdx mice; test: Histological studies of biceps muscle, Example 2; format: in vivo; conditions: genistein 2 mg/kg/ip daily for 5 weeks vs vehicle
Experimental: as §1
Transverse cryostat sections 10 μm thick were obtained from the midpoint of the biceps and TA muscle body. The whole muscle cross sections (corresponding to a mean area of 2.10 mm^2 in biceps and 2.25 mm^2 in TA) were stained with hematoxylin-eosin and were examined by a blinded observer using the AxioVision 2.05 image analysis system equipped with an Axiocam camera scanner (Zeiss, Munchen, Germany). The following four areas with patchy distribution were recognized: 1) normal fibers identified by the presence of peripheral nuclei; 2) necrotic fibers identified by pale cytoplasm and phagocytosis; 3) regenerating fibers identified by small size, central nuclei with/without basophilic cytoplasm; 4) centrally nucleated fibers identified by normal size but with central nuclei. The area occupied by normal fibers, necrotic fibers, regenerating fibers, or centrally nucleated fibers was expressed as a percentage of the area of the whole muscle cross section.

[3] = test system: NF-κB; test: NF-κB activation (EMSA) in skeletal muscle, Example 2; format: in vivo; conditions: mdx mice skeletal muscle, genistein 2 mg/kg/ip daily for 5 weeks vs vehicle
Experimental: as §1
Isolation of nuclear proteins in approximately 50 mg of frozen skeletal muscle tissue was performed according to recently detailed method (See ref 15 below). Twenty micrograms of nuclear extract were incubated for 30 min at room temperature with 50 fmol of biotin-end-labeled 45-mer double-strand NF-κB oligonucleotide from the HIV long terminal repeat, 5-[…] GGCGTGGG-3 containing 2(underlined) NF-κB binding sites. Both complimentary oligos were end-labeled separately and then annealed prior to use. […] The results were expressed as relative integrated intensity compared with normal controls, considering exposure time, background levels and known protein concentration of an Epstein Barr virus nuclear antigen-1 extract, which was used as EMSA control.

[4] = test system: mdx mice; test: Immunohistochemistry of biceps (myogenin, dMHC), Example 2; format: in vivo; conditions: genistein 2 mg/kg/ip daily for 5 weeks vs vehicle
[5] = test system: Extensor digitorum longus muscles (EDL) of mdx mice; test: Electrophysiological studies of isolated EDL muscle, Example 2; format: in vivo; conditions: genistein 2 mg/kg/ip daily for 5 weeks vs vehicle
Experimental: as §1
Extensor digitorum longus muscles (EDL) were vertically mounted in a temperature controlled (30°) chamber containing Krebs Ringer bicarbonate buffer (Sigma k4002) and continuously gassed with a mixture of 95% O2 and 5% CO2. One end of the muscle was linked to a fixed clamp while the other end was connected to the lever-arm of an Aurora Scientific Instruments 300B actuator/transducer system using a nylon wire. […] For each experiment, the initial muscle length was adjusted to the length (L0) which produced the highest twitch force. The optimal fiber length (Lf) was determined by multiplying the value of L0 for the fiber length by the muscle length ratio (0.44 for the EDL and 0.71 for soleus). The muscle cross-sectional area (CSA) was determined for the EDL and soleus by dividing the muscle mass (m) by the product of the Lf and the density of mammalian skeletal muscle (1.06 mg/mm^3).
In order to measure force generation, the muscle was initially stimulated with two 0.5 ms single pulses (with a rest time of 150 s) to measure twitch force, twitch force/cross sectional area (CSA), and contraction time (the time that the isolated muscle needs to reach the peak force after delivery of a single electrical pulse).
In order to measure high-stress eccentric contractions, the muscle was stimulated with five tetanic stimulations (train of 0.1 ms pulses delivered at 180 Hz, for 0.6 s) to evaluate the maximum isometric force (and maximum force/cross sectional area (CSA)) and the decline in maximal isometric force. The latter was measured by dividing the force value at the last stimulation (F5) by the force value at the first stimulation (F1), and used as a index of myofiber injury caused by high-stress contractions.

[6] = Body weight, Example 2; format: in vivo; conditions: mdx mice, genistein 2 mg/kg/ip daily for 5 weeks vs vehicle
Experimental: as §1
(§2) Mice were weighed and examined for forelimb strength at baseline and at the end of the experiment. Strength testing consisted of five separate measurements using a grip meter attached to a force transducer that measures the peak force generated (Stoelting Co., Wooddale Ill., USA). Specifically, the mouse grabbed the trapeze bar as it is pulled backward and the peak pull force in grams is recorded on a display. The three highest measurements for each animal were averaged to give the strength score.

[7] = test system: mdx mice; test: Forelimb strength and fatigue by grip meter, Example 2; format: in vivo; conditions: genistein 2 mg/kg/ip daily for 5 weeks vs vehicle
Experimental: as §1, §2
The degree of fatigue was calculated by comparing the first two pulls to the last two pulls. The decrease between pulls 1+2 and pulls 4+5 provided the measure of fatigue.

[8] = test system: mdx mice; conditions: previous studies (Ref. 36-37); cited from earlier work
[9] = test system: muscle regeneration after traumatic injury; conditions: systemic administration (Ref. 21); cited from earlier work
[10] = test system: mdx mice; conditions: previous studies (Ref. 38 and 39); cited from earlier work
[11] = test system: WT and mdx mice; test: Serum creatine kinase (CK) evaluation, Example 1; format: in vivo; conditions: after 5 weeks daily i.p. treatment, mean±SD
Experimental: (§3) Five-week old mdx and WT mice were treated for 5 weeks with daily 100 μl intraperitoneal injections with either flavocoxid (a mixture of catechin and baicalin) (n=8, 5 mg/kg), methylprednisolone (n=8, 0.75 mg/Kg) or vehicle (n=8, 33% (v/v) dimethylsulphoxide (DMSO) in 0.9% NaCl). At the end of the experiments, animals were anaesthetized with intraperitoneal administration of sodium penthobarbital (80 mg/kg). Blood was then collected by intracardiac puncture and used to analyze creatine kinase (CK) levels. The biceps, quadriceps and extensor digitorum longus (EDL) muscles were removed bilaterally and immediately frozen in liquid nitrogen-cooled isopentane and stored at −80° C. for histological and biochemical evaluations.
Blood samples were centrifuged at 6,000 RPM and the serum stored at −80° C. until the day of analysis. Serum CK was evaluated at 37° C. using a commercially available kit (Randox Laboratories LTD, Crumlin, Co. Antrim U.K). The results were expressed as U/L.

[12] = test system: WT and mdx mice; test: Forelimb strength and fatigue by grip meter, Example 1; format: in vivo; conditions: flavocoxid 5 mg/kg, methylprednisolone 0.75 mg/Kg
Experimental: as §3
(§4) Mice were weighed and examined for forelimb strength at baseline and after 5 weeks of treatment. Strength testing consisted of five separate measurements using a grip meter attached to a force transducer that measures peak force generated (Stoelting Co, Wooddale Ill., USA). Briefly, the mouse grabed the trapeze bar as it was pulled backward and the peak pull force in grams was recorded on a display upon release by the animal. The three highest measurements for each animal were averaged to give the strength score. The degree of fatigue was calculated by comparing the first two pulls to the last two pulls. The decrement between pulls 1+2 and pulls 4+5 gave the measure of fatigue.

[13] = Body weight, Example 1; format: in vivo; conditions: WT mice, after 5 weeks daily i.p. treatment, compared to WT mice treated with vehicle
Experimental: as §3
as §4, with “The decrement between pulls 1+2 and pulls 4+5 gave the measure of fatigue.” left out

[14] = end of 5 weeks daily i.p. treatment

Compound: O=c1c(-c2ccc(O)cc2)coc2cc(O)cc(O)c12 [genistein, 5,7-Dihydroxy-3-(4-hydroxyphenyl)chromen-4-one]
- CK levels [1]: statistically significant reduction
- necrosis in the biceps [2]: decreased
- percentage of centrally nucleated fibers in the biceps [2]: not found to modify
- percentage of normal muscular area in the biceps [2]: not found to modify
- percentage of regenerating fibers in the biceps [2]: increased
- NF-κB activation [3]: significantly decreased
- myogenin expression in the nuclei of muscles [4]: significantly increased
- number of dMHC positive fibers [4]: not found to modify
- number of myogenin positive satellite cells (SC) [4]: not found to modify
- contraction time [5]: not found to modify
- decline of maximal isometric force (F5/F1 after five tetanic stimulations) [5]: reduced
- maximum force/CSA [5]: not found to modify
- twice force/CSA [5]: not found to modify
- twitch force [5]: not found to modify
- body weight [6]: not significantly different
- forelimb strength [7]: significantly augmented
- level of fatigue [7]: slightly lower
- strength normalized to weight [7]: higher

Compound: S=C(S)N1CCCC1 [pyrrolidine dithiocarbamate]
- effects on functional, biochemical and morphological parameters of mdx mice muscle fibers [8]: beneficial effects

Compound: COc1cc(/C=C/C(=O)CC(=O)/C=C/c2ccc(O)c(OC)c2)ccc1O [curcumin]
- muscle regeneration after traumatic injury [9]: stimulates muscle regeneration

Compound: O=C(O[C@@H]1Cc2c(O)cc(O)cc2O[C@@H]1c1cc(O)c(O)c(O)c1)c1cc(O)c(O)c(O)c1 [epigallocatechin gallate]
- effect on mdx mice [10]: beneficial effect

Compound: CC(=O)SCCC1Cc2c(C)c(OC(=O)CCC(=O)O)c(C)c(C)c2O1 (racemic) [IRFI-042, (±)-5-emisuccinoyl-2-[2-(acetylthio)ethyl]-2,3-dihydro-4,6,7-trimethylbenzofuran]
- effects on functional, biochemical and morphological parameters of mdx mice muscle fibers [8]: beneficial effects

Compound: C[C@H]1C[C@@H]2[C@H]([C@@H](O)C[C@@]3(C)[C@H]2CC[C@]3(O)C(=O)CO)[C@@]2(C)C=CC(=O)C=C12 [methylprednisolone]
- serum CK levels ([11]; WT mice): 365±28 U/L
- serum CK levels ([11]; mdx mice): 1737±103 U/L
- fatigue levels compared to vehicle-treated mdx ([12]; after 5 weeks daily i.p. treatment): −13%
- forelimb strength compared to vehicle-treated mdx mice [12, 14]: +30%
- strength normalized to weight compared to vehicle-treated mdx mice [12, 14]: +27%
- body weight [13]: increase in body weight
